Assay results reported in patent US20090036492A1, “Novel Cercosporamide Derivative” (priority 2005, published 2009).

Tested on: male KK mice
Experiment: Blood glucose lowering effect in diabetic KK mice
Format: in vivo
Conditions: 15 to 20 weeks old, feed containing 0.03% of the compound, three days, blood glucose on the 3rd day vs control group
Text: Six-week-old male KK mice were purchased from CLEA Japan, Inc. and then were fed until 15 to 20 weeks old and affected with diabetes. The mice were individually fed during the adaptation period and the test period, and water and feed (FR2, Funabashi Farm) were freely ingested.
At the start of the experiment, after body weight measurement, blood was collected from the tail vein of the mice into a heparin-coated glass tube and centrifuged, and then plasma was separated. The glucose level in the plasma was measured by Glucoloader GXT (A&T Corp.), and individuals having a blood glucose level of about 350 mg/dl or more were selected. Groups each having 3 to 4 mice were used for the experiment, and the mice were grouped to make the average body weight and the average blood glucose level similar. Each compound was administered to a compound administration group by feeding a mixture with feed containing 0.03% of the compound. A separate group in which the mice were fed only with feed was a control group.
The experiment period (drug administration period) was three days. The grouping day was the 0th day. On the 3rd day, body weight was measured and blood was collected from the tail vein to measure the blood glucose level.
The blood glucose lowering efficacy was determined by the following formula.
Blood glucose lowering efficacy=[(Control group blood glucose level−Compound administration group blood glucose level)/Control group blood glucose level]×100

| Compound | Blood glucose lowering efficacy (%) |
| --- | --- |
| COc1cc(O)c2c(c1C(=O)NCc1ccc(Oc3ccccc3Cl)c3ccccc13)OC1=CC(O)=C(C(C)=O)C(=O)[C@]12C [Example 166, (9aS)-8-Acetyl-N-{[4-(2-chlorophenoxy)-1-naphthyl]methyl}-1,7-dihydroxy-3-methoxy-9a-methyl-9-oxo-9,9a-dihydrodibenzo[b,d]furan-4-carboxamide] | 47 |
| COc1cc(O)c2c(c1C(=O)NCc1ccc(OCc3ccccc3F)c3ccccc13)OC1=CC(O)=C(C(C)=O)C(=O)[C@]12C [Example 144, (9aS)-8-Acetyl-N-({4-[(2-fluorobenzyl)oxy]-1-naphthyl}methyl)-1,7-dihydroxy-3-methoxy-9a-methyl-9-oxo-9,9a-dihydrodibenzo[b,d]furan-4-carboxamide] | 41 |

Same assay, conditions: Mus musculus, po, 72 h, 15 to 20 weeks old, feed containing 0.03% of the compound, three days, blood glucose on the 3rd day vs control group, read-out: Blood glucose lowering efficacy (%)

| Compound | inhibition in vivo at 0.03 % in feed [%] |
| --- | --- |
| CC(=O)C1=C(O)C=C2Oc3c(C(=O)NCc4c(C)ccc5ccccc45)c(OC(F)F)cc(O)c3[C@]2(C)C1=O [Example 86, (9aS)-8-Acetyl-3-(difluoromethoxy)-1,7-dihydroxy-9a-methyl-N-[(2-methyl-1-naphthyl)methyl]-9-oxo-9,9a-dihydrodibenzo[b,d]furan-4-carboxamide] | 31 |
| COc1cc(O)c2c(c1C(=O)NCc1c(C)ccc3c(F)cc(F)cc13)OC1=CC(O)=C(C(C)=O)C(=O)[C@]12C [Example 176, (9aS)-8-Acetyl-N-[(5,7-difluoro-2-methyl-1-naphthyl)methyl]-1,7-dihydroxy-3-methoxy-9a-methyl-9-oxo-9,9a-dihydrodibenzo[b,d]furan-4-carboxamide] | 40 |
| CCc1ccc2ccccc2c1CNC(=O)c1c(OC)cc(O)c2c1OC1=CC(O)=C(C(C)=O)C(=O)[C@]12C [Example 56, (9aS)-8-Acetyl-N-[(2-ethyl-1-naphthyl)methyl]-1,7-dihydroxy-3-methoxy-9a-methyl-9-oxo-9,9a-dihydrodibenzo[b,d]furan-4-carboxamide] | 24 |
| COc1cc(O)c2c(c1C(=O)NCc1ccc(OCc3ccc(F)cc3F)c3ccccc13)OC1=CC(O)=C(C(C)=O)C(=O)[C@]12C [Example 146, (9aS)-8-Acetyl-N-({4-[(2,4-difluorobenzyl)oxy]-1-naphthyl}methyl)-1,7-dihydroxy-3-methoxy-9a-methyl-9-oxo-9,9a-dihydrodibenzo[b,d]furan-4-carboxamide] | 49 |
| COc1cc(O)c2c(c1C(=O)NCc1c(C)ccc3ccc(F)cc13)OC1=CC(O)=C(C(C)=O)C(=O)[C@]12C [Example 182, (9aS)-8-Acetyl-N-[(7-fluoro-2-methyl-1-naphthyl)methyl]-1,7-dihydroxy-3-methoxy-9a-methyl-9-oxo-9,9a-dihydrodibenzo[b,d]furan-4-carboxamide] | 50 |
| CCc1c(C)cc2ccccc2c1CNC(=O)c1c(OC)cc(O)c2c1OC1=CC(O)=C(C(C)=O)C(=O)[C@]12C [Example 116, (9aS)-8-Acetyl-N-[(2-ethyl-3-methyl-1-naphthyl)methyl]-1,7-dihydroxy-3-methoxy-9a-methyl-9-oxo-9,9a-dihydrodibenzo[b,d]furan-4-carboxamide] | 32 |
| CCc1ccc2cc(F)c(F)cc2c1CNC(=O)c1c(OC)cc(O)c2c1OC1=CC(O)=C(C(C)=O)C(=O)[C@]12C [Example 188, (9aS)-8-Acetyl-N-[(2-ethyl-6,7-difluoro-1-naphthyl)methyl]-1,7-dihydroxy-3-methoxy-9a-methyl-9-oxo-9,9a-dihydrodibenzo[b,d]furan-4-carboxamide] | 57 |
| COc1cc(O)c2c(c1C(=O)NCc1c(C)c(C)cc(C)c1C)OC1=CC(O)=C(C(C)=O)C(=O)[C@]12C [Example 36, (9aS)-8-Acetyl-1,7-dihydroxy-3-methoxy-9a-methyl-9-oxo-N-(2,3,5,6-tetramethylbenzyl)-9,9a-dihydrodibenzo[b,d]furan-4-carboxamide] | 36 |
| CC#CCOc1cc(C)c(CNC(=O)c2c(OC)cc(O)c3c2OC2=CC(O)=C(C(C)=O)C(=O)[C@]23C)c(C)c1 [Example 97, (9aS)-8-Acetyl-N-[4-(2-butynyloxy)-2,6-dimethylbenzyl]-1,7-dihydroxy-3-methoxy-9a-methyl-9-oxo-9,9a-dihydrodibenzo[b,d]furan-4-carboxamide] | 53 |
| COc1cc(O)c2c(c1C(=O)NCc1c(C)cc(Cl)c3ccccc13)OC1=CC(O)=C(C(C)=O)C(=O)[C@]12C [Example 178, (9aS)-8-Acetyl-N-[(4-chloro-2-methyl-1-naphthyl)methyl]-1,7-dihydroxy-3-methoxy-9a-methyl-9-oxo-9,9a-dihydrodibenzo[b,d]furan-4-carboxamide] | 37 |
| CC#CCOc1cc(C)c(CNC(=O)c2c(OC)cc(O)c3c2OC2=CC(O)=C(C(C)=O)C(=O)[C@]23C)c(C)c1C [Example 102, (9aS)-8-Acetyl-N-[4-(2-butynyloxy)-2,3,6-trimethylbenzyl]-1,7-dihydroxy-3-methoxy-9a-methyl-9-oxo-9,9a-dihydrodibenzo[b,d]furan-4-carboxamide] | 63 |
| COc1cc(O)c2c(c1C(=O)NCc1c(C)ccc3ccc(Cl)cc13)OC1=CC(O)=C(C(C)=O)C(=O)[C@]12C [Example 181, (9aS)-8-Acetyl-N-[(7-chloro-2-methyl-1-naphthyl)methyl]-1,7-dihydroxy-3-methoxy-9a-methyl-9-oxo-9,9a-dihydrodibenzo[b,d]furan-4-carboxamide] | 45 |
| CCC#CCOc1cc(C)c(CNC(=O)c2c(OC)cc(O)c3c2OC2=CC(O)=C(C(C)=O)C(=O)[C@]23C)c(C)c1C [Example 103, (9aS)-8-Acetyl-1,7-dihydroxy-3-methoxy-9a-methyl-9-oxo-N-[2,3,6-trimethyl-4-(2-pentynyloxy)benzyl]-9,9a-dihydrodibenzo[b,d]furan-4-carboxamide] | 62 |
| COc1cc(O)c2c(c1C(=O)NCc1c(C)ccc3ccccc13)OC1=CC(O)=C(C(C)=O)C(=O)[C@]12C [Example 27, (9aS)-8-Acetyl-1,7-dihydroxy-3-methoxy-9a-methyl-N-[(2-methyl-1-naphthyl)methyl]-9-oxo-9,9a-dihydrodibenzo[b,d]furan-4-carboxamide] | 42 |
| CCc1ccc2c(F)cc(C)cc2c1CNC(=O)c1c(OC)cc(O)c2c1OC1=CC(O)=C(C(C)=O)C(=O)[C@]12C [Example 195, (9aS)-8-Acetyl-N-[(2-ethyl-5-fluoro-7-methyl-1-naphthyl)methyl]-1,7-dihydroxy-3-methoxy-9a-methyl-9-oxo-9,9a-dihydrodibenzo[b,d]furan-4-carboxamide] | 36 |
| C=CCO/N=C(\C)C1=C(O)C=C2Oc3c(C(=O)NCc4c(C)cc(NS(=O)(=O)c5ccc(Cl)cc5Cl)cc4C)c(OC)cc(O)c3[C@]2(C)C1=O [Example 162, (9aS)-8-[(1E)-N-(Allyloxy)ethaneimidoyl]-N-(4-{[(2,4-dichlorophenyl)sulfonyl]amino}-2,6-dimethylbenzyl)-1,7-dihydroxy-3-methoxy-9a-methyl-9-oxo-9,9a-dihydrodibenzo[b,d]furan-4-carboxamide] | 43 |
| CCCc1c(C)cc(C)c(C)c1CNC(=O)c1c(OC)cc(O)c2c1OC1=CC(O)=C(C(C)=O)C(=O)[C@]12C [Example 94, (9aS)-8-Acetyl-1,7-dihydroxy-3-methoxy-9a-methyl-9-oxo-N-(2,3,5-trimethyl-6-propylbenzyl)-9,9a-dihydrodibenzo[b,d]furan-4-carboxamide] | 44 |
